In patent publication US20160338967A1, “SUSTAINED RELEASE DEPOT FORMULATIONS OF T[…], AND USES THEREOF” (Kineta One, LLC, priority 2013, published 2016):

What was measured:
[1] = system: delayed type hypersensitivity rat model; experiment: Delayed type hypersensitivity rat model (ear induration); type: in vivo, Lewis rats; details: single injection of PLG depot formulation on day 0, 1,000-40,000 μg/kg; versus daily SC injection in buffer P6N
Description: Therapeutic efficacy of ShK-186 and ShK-192 depot formulations in animal models of autoimmune disease including the delayed type hypersensitivity rat model. Lewis rats are vaccinated by SC administration to the base of the tail with 100 μg ovalbumin mixed 1:1 (v/v) in Complete Freund's Adjuvant (CFA) (OVA/CFA, 200 μL volume) on day 0 using a 20 G×1% needle. Delayed-type hypersensitivity (DTH) is elicited in the ear on Day 7 by injection of 20 μg OVA in 10 μL to the pinna of the ear of isoflurane-anesthetized animals using 29 G×1 needles. DTH is evaluated on Days 8 and 9 by measuring the induration of the site of antigen injection with a micrometer (caliper). Control treatments with ShK-186 or ShK-192 include SC injections of ShK-186 or ShK-192 at 100 μg/kg, 10 μg/kg, 3 μg/kg or 1 μg/kg given on day 0-7 (daily from the initial immunization). The control treatments are compared to a single injection of a depot formulation of ShK-186 or ShK-192 using a PLG polymer-based (in one example, PLG2A) sustained formulations at a dose of 1,000 μg/kg, 5,000 μg/kg, 10,000 μg/kg, 20,000 μg/kg, or 40,000 μg/kg given on day 0 (time of immunization).

[2] = system: chronic relapsing/remitting autoimmune encephalomyelitis rat model; experiment: Chronic relapsing/remitting autoimmune encephalomyelitis rat model (clinical scoring); type: in vivo, dark agouti rats; details: single injection of PLG2A depot formulation, 1,000-40,000 μg/kg; prevention and treatment models
Description: Therapeutic efficacy of ShK-186 and ShK-192 depot formulations in animal models of autoimmune disease including the chronic relapsing/remitting autoimmune encephalomyelitis rat model. Chronic relapsing/remitting autoimmune encephalomyelitis (CR-EAE) is induced by SC injection of spinal cord homogenate (Bioreclamation, Inc.) and CFA to dark agouti rats (Harlan). Animals typically recover by 30 days after onset of CR-EAE. Rats are treated with different amounts of ShK-186 or ShK-192 (1, 3, 5, 10, and 100 μg/kg) in SC injections daily, every two days, or every three days at different time points prior to and after elicitation of CR-EAE by immunization. These regimens are compared to single injection of depot formulations (ShK-186 or ShK-192 with PLG2A) at doses of 1,000 μg/kg, 5,000 μg/kg, 10,000 μg/kg, 20,000 μg/kg, or 40,000 μg/kg given at the beginning of the experiment (time immunization, prevention model) and after onset of disease, i.e., after a rat has a clinical score of 1 or greater (treatment model).
The efficacy of the treatments is measured by clinical scoring of the severity of CR-EAE in daily and depot formulation-treated rats. […] Subsets of rats are sacrificed at specific time points of the experiment to harvest tissues or to collect whole blood samples.

[3] = In vivo release of ShK-192 formulated with PLG2A, blood ELISA (Example 5); set-up: species or system Sprague-Dawley rats; details: PLG2A depot formulation, 10,000 μg/kg, single SC injection, n=3 (FIG. 7)
Description: The next part of this Example was performed to test formulation and in vivo release of ShK-192 over extended time durations. Similar to the methods used for ShK-186, 1.0 g of PLG2A was dissolved into 5.0 mL dichloromethane with mechanical stirring until the polymer was completely dissolved. A volume of 500 μL including a low dose of ShK-192 (10 mg/mL final concentration; in a 20 mM sodium phosphate aqueous buffer (pH 6.0) with 140 mM NaCl) was formulated by homogenizing for 2 minutes with a 10×195 mm probe (26,000 rpm). The w/o emulsion was then transferred into a 100 mL Pyrex® 1395 media bottle charged with 20 mL of 0.5% w/w DSS, 20 mM phosphate (pH 7.0), water solution.
The mixture was held in thermal contact with ice water (0° C.) and homogenized for 5 minutes at 26,000 rpm, with the final pH of the aqueous (external) phase verified and adjusted to 5.0<pH<7.5. The formulation was then removed from homogenization and mechanically stirred overnight at room temperature in a fume hood to permit solvent evaporation. The next day the suspension was first filtered through a 325 mesh screen, then stored at room temperature with end over end mixing to minimize settling/clumping. Immediately before in vivo use, the formulations were centrifuged utilizing the appropriate volume for 8 minutes, at 4° C. at 2,000 g. […]

[4] = In vivo dose response/release of ShK-186 formulated with PLG2A, blood ELISA (Example 5); set-up: species or system Sprague Dawley rats
Description: In vivo dose response of depot formulations using ShK-186 and ShK-192 with PLG2A. Preparation of depot formulations was performed as follows: 1.0 g of PLG2A was dissolved into 5.0 mL dichloromethane with mechanical stirring until the polymer was completely dissolved. A volume of 500 μL including three levels of ShK-186 (40, 20, and 10 mg/mL final concentration; in a 20 mM sodium phosphate aqueous buffer (pH 6.0) with 140 mM NaCl) was added separately into three separate PLG2A preparations and homogenized for 2 minutes with a 10×195 mm probe (26,000 rpm). The w/o emulsion was then poured into a 100 mL Pyrex® 1395 media bottle charged with 20 mL of 0.5% w/w DSS, and 20 mM phosphate (pH 7.0) water solution. The mixture was homogenized for 5 minutes at the same shear setting (26,000 rpm), with the beaker in thermal contact with melting ice (0° C.). The pH of the aqueous (external) phase was verified and adjusted if necessary to 5.0<pH<7.5.
The formulation was then removed from shear, and stirred overnight at room temperature in a fume hood to allow solvent evaporation. The next morning the suspension was filtered through a 325 mesh screen and stored at room temperature with end over end mixing to avoid settling/clumping. Immediately before use by injection, the formulations were centrifuged utilizing the appropriate volume for 8 min, 4° C. at 2,000 g. The solid particles settled to the bottom, allowing for decanting of the almost clear supernatant, followed by replacement of aqueous solution with an appropriate volume and composition (e.g. PBS), followed by mechanical mixing to resuspend the particles.
Sprague Dawley rats (females, ages 8-16 weeks, n=3) were given a SC injection of 1 mL of the indicated depot formulations. Blood was drawn at various time points and assayed for ShK-186 by ELISA methods.
In a repeat experiment, the time during which blood levels of ShK-186 were monitored was extended.

For “(Para-phosphono-Phe)-AEEAc-RSCIDTIPKSRCTAFQCKHS(Nle)KYRLSFCRKTCGTC-amide [ShK-192]”, the “reduction of induration (inflammatory response) in DTH” value [1] was “significant therapeutic effect”, the “reduction in clinical scores of CR-EAE” value [2] was “significant therapeutic effects” and the “duration of release from depot formulation” value [3] was “over 30 days”. For the same substance, the “time of maximum concentration” value [3] was roughly 12 days.
With “(L-PhosphoTyr)-AEEAc-RSCIDTIPKSRCTAFQCKHSMKYRLSFCRKTCGTC-amide [ShK-186]” the “reduction of induration (inflammatory response) in DTH” value [1] was “significant therapeutic effect”, the “reduction in clinical scores of CR-EAE” value [2] was “significant therapeutic effects” and the “shape of in vivo release profiles across doses” value ([4]; 40,000, 20,000 and 10,000 μg/kg (FIG. 6)) was “geometrically similar, but scaled by the area under the curve to the total dose”. For the same substance, the “duration of sustained in vivo release” value ([4]; single SC dose (1 mL) 20,000 μg/kg, repeat experiment (FIG. 8)) was “at least 56 days” and the “time blood serum levels are maintained” value ([4]; single SC injection, 40,000, 20,000 and 10,000 μg/kg, n=3 (FIG. 6)) was “more than 30 days”.
